Results taken from patent US20020037560A1, “Bicyclic terpenes and synthesis thereof” (priority 2000, published 2002).

Biological target: T1, Tobacco 5-epi-aristolochene synthase (TEAS) (Nicotiana tabacum, UniProt Q40577)
T1 construct: made in house
T1 sequence (Q40577 1-548): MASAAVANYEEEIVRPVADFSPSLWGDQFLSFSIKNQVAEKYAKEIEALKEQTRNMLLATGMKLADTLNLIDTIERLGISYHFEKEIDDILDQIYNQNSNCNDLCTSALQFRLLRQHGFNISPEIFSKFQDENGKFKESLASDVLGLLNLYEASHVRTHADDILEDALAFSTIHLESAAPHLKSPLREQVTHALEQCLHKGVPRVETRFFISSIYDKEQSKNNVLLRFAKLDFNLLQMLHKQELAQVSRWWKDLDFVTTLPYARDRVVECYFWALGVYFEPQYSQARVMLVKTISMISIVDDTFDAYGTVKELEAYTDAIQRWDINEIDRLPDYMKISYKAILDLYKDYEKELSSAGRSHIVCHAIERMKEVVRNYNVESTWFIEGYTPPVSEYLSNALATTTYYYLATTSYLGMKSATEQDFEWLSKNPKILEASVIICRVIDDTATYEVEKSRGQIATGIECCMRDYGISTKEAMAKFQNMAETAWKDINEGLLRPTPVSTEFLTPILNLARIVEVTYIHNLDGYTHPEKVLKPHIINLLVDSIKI
Assay: TEAS activity assay (3H-FPP to 3H-5-epi-aristolochene, hexane partitioning)
Type: biochemical
Experimental: Kinetic Characterization of the Interaction of AGPP with TEAS. The assay for TEAS activity is based upon partitioning of the hydrophobic product (^3H-5-epi-aristolochene) into an organic solvent while the hydrophilic substrate (^3H-FPP) remains in the aqueous phase (i.e. Vögeli & Chappell, 1988; Back et al., 1994; Mathis et al. 1997). The Ki describing AGPP interaction with TEAS was characterized by measuring initial velocities for a matrix of reactions. Reactions (50 μl) containing 200 mM Tris-Cl, pH 7.5, 40 mM MgCl2, 50-250 nM TEAS, and 0.2 μCi ^3H-FPP, carrier-free or in combination with unlabeled FPP to give final substrate concentrations of 0.2-10 μM. Fixed concentrations of AGPP ranged from 0-150 μM. Reactions were initiated by the addition of enzyme and were incubated for 5 min. at 37° C. Reactions were quenched by vortexing against 150 μl hexane. After a brief centrifugation, 100 μl of the hexane phase was treated with approximately 20 mg of silica powder to remove any contaminating FPP or farnesol, the latter of which may be generated by contaminating phosphatase activity. Following vortexing and a brief centrifugation to pellet the silica, 50 μl of the hexane phase was mixed with 4 ml of liquid scintillation cocktail and analyzed for radioactivity (disintegrations per minute). Determination of reaction rate was based on percent conversion to product, the value for which was obtained by comparing the radioactivity in the hexane extract to that in an untreated aliquot of the assay mixture. […] Data were analyzed using Enzyme Kinetics V 1.5 (Trinity Software).
Kinetic Characterization of the Interaction of AGPP with TEAS. As a synthetic analog of FPP, AGPP (2) may potentially bind within the TEAS active site and thereby inhibit the sesquiterpene synthase activity of this enzyme. The nature of the potential interaction between TEAS and AGPP was characterized through a series of TEAS activity assays in which the ability of TEAS to produce ^3H-5-epi-aristolochene from ^3H-FPP was monitored in the presence of unlabeled AGPP. […]

mode of inhibition of TEAS-catalyzed cyclization of FPP (Lineweaver-Burk plots, FIG. 1) (intersecting Lineweaver-Burk plots) | Ki (recombinant TEAS, 3H-FPP substrate 0.2-10 μM, AGPP 0-150 μM, 5 min at 37° C., read-out: Ki for the inhibition of TEAS activity) | Km (at 37° C., read-out: KM, TEAS utilization of FPP as a substrate) | SMILES
competitive inhibitor | 5.9 ± 1.8 µM |  | C/C(=C\COP(=O)(O)OP(=O)(O)O)CC/C=C(\C)CNc1ccccc1 [AGPP, 8-anilino-geranyl pyrophosphate]
 |  | 5.4 µM | CC(C)=CCC/C(C)=C/CC/C(C)=C/COP(=O)(O)OP(=O)(O)O [FPP]
